Among the data in article PMC9913288, “Suppression of Cancer Cell Stemness and Drug Resistance via MYC Destabilization by Deubiquitinase USP45 Inhibition with a Natural Small Molecule” (Cancers, 2023) are Kd values, retold here.

In general, Kd refers to a measure of binding affinity in units of concentration. Low values mean higher affinity, high ones lower affinity.

The assay deals with T1, USP45 (Homo sapiens, UniProt Q70EL2).
T1 construct: USP45-His purified from E. coli BL21, biotinylated
T1 sequence (Q70EL2 1-814): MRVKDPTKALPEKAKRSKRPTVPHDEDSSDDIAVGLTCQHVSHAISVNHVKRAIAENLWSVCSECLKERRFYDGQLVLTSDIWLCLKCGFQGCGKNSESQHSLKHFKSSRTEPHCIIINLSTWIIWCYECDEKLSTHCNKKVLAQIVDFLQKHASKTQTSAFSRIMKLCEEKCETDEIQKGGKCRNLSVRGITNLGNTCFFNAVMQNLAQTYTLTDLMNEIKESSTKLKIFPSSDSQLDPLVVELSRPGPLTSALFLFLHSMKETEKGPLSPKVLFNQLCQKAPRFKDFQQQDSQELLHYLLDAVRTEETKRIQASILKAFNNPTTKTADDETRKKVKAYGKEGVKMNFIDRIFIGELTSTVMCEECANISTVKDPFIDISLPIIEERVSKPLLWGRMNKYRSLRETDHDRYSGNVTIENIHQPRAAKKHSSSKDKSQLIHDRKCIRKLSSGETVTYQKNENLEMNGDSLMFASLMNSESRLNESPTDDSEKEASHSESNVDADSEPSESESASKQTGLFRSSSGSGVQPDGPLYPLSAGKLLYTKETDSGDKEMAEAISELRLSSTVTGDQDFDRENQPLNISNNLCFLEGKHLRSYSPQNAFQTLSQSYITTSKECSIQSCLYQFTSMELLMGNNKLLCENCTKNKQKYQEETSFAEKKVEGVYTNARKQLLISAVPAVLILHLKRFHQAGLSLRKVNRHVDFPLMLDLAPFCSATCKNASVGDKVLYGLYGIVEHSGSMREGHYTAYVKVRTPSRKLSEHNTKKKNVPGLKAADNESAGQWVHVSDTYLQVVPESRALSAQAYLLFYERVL
Briefly: BLI (OCTET K2) with purified biotinylated USP45. The assay is classed as binding.

`COc1c(O)cc2oc3cc(O)c(CC=C(C)C)c(O)c3c(=O)c2c1CC=C(C)C` [AMG, α-mangostin] registered a Kd of 19.3 µM. This lies in the double-digit micromolar range.
